“Also recorded” adds a separate entry of the source. Positions of bridges follow the written chain, without caps; N, C: chain ends. Residues, ends and D or L forms follow the SMILES beside them.
Legend:
naïve C57BL6/J mice [1] = details: mouse, in vivo
[2] = biological target: T1, endogenous CaV2.2 channels, expressed in the SH-SY5Y cells (Homo sapiens, UniProt Q00975); test: cell-based
T1 construct: endogenous CaV2.2 channels, expressed in the SH-SY5Y cells; endogenous in cells; host or cells: SH-SY5Y human neuroblastoma cells

naïve C57BL6/J mice [3] = details: mouse, in vivo; remark: listed apart in the source
naïve C57BL6/J mice [4] = details: mouse, in vivo; remark: listed apart in the source
[5] = in vivo, cited from earlier work
[6] = system: cisplatin-induced mechanical allodynia; set-up: species or system mice (C57BL/6J); details: mouse, in vivo
mouse inflammatory pain = details: in vivo, sc; cited from earlier work
[7] = system: surgery-induced mechanical allodynia; set-up: species or system mice (C57BL/6J); details: mouse, in vivo
[8] = system: surgery-induced thermal allodynia; set-up: species or system mice (C57BL/6J); details: mouse, in vivo
CaV channel = details: cited from earlier work
[9] = system: oxaliplatin-induced mechanical allodynia; set-up: species or system mice (C57BL/6J); details: mouse, in vivo
[10] = system: oxaliplatin-induced mechanical allodynia; set-up: species or system mice (C57BL/6J); details: mouse, in vivo; remark: listed apart in the source
[11] = in vivo; cited from earlier work

T1 sequence (Q00975 whole entry, looked up): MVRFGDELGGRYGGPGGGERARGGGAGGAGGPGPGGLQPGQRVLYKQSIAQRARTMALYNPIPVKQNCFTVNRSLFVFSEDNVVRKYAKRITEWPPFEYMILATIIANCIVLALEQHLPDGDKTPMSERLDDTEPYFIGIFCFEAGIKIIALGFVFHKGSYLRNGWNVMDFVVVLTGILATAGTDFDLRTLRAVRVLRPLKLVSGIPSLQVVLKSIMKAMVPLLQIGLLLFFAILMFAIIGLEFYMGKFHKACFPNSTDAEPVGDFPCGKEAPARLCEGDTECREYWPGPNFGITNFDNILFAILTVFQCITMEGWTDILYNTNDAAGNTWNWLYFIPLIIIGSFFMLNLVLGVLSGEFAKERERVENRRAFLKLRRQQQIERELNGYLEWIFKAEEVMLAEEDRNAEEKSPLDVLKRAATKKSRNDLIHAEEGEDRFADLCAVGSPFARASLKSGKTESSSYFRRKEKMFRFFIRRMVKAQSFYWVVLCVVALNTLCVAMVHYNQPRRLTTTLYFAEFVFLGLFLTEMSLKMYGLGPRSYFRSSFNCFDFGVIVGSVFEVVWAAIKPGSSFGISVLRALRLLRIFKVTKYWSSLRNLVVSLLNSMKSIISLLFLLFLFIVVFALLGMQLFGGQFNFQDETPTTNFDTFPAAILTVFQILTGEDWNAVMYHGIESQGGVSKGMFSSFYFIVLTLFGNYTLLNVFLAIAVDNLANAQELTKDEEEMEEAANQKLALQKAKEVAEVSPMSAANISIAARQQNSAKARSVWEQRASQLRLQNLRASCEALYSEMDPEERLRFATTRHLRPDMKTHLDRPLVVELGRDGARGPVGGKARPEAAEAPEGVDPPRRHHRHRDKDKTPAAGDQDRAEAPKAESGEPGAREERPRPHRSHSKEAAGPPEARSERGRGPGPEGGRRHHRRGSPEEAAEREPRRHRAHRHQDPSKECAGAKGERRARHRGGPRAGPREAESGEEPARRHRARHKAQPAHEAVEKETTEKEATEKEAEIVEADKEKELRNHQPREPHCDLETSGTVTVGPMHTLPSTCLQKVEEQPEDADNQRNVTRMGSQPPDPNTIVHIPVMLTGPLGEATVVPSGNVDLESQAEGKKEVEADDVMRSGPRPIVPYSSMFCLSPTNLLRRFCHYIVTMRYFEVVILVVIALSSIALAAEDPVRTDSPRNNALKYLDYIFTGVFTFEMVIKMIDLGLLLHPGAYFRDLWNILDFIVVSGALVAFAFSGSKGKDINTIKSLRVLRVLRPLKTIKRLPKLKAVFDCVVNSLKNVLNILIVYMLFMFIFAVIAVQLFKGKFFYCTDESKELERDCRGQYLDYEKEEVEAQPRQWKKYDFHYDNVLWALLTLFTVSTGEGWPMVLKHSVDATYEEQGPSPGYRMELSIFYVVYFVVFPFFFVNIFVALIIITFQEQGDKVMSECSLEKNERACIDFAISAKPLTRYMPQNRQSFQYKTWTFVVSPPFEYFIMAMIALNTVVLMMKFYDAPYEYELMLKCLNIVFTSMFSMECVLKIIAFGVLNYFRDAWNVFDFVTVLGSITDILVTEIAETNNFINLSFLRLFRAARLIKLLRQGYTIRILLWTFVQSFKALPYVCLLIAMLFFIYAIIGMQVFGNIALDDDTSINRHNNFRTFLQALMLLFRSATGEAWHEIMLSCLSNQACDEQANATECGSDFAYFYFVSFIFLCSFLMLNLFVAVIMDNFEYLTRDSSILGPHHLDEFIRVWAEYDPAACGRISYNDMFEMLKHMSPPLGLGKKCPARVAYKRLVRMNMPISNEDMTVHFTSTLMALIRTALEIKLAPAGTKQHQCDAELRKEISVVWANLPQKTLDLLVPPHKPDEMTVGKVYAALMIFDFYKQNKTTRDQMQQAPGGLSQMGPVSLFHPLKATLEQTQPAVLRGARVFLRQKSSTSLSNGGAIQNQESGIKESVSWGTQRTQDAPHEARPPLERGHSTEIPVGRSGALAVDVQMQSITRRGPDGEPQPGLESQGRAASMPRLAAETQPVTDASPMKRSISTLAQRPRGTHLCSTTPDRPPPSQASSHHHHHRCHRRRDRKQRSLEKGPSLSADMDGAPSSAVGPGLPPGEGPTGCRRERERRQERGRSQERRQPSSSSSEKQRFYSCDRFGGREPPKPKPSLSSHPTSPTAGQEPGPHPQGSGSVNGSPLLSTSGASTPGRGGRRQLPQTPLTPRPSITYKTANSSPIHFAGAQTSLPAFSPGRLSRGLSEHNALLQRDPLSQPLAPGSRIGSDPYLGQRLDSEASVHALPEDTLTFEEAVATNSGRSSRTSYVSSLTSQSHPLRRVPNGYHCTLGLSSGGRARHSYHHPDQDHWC

C[C@@H](O)[C@@H]1NC(=O)[C@H](Cc2ccc(O)cc2)NC(=O)[C@@H]2C[C@@H](O)CN2C(=O)[C@H](CC(N)=O)NC(=O)[C@@H]2CSSC[C@@H]3NC(=O)[C@H](CO)NC(=O)[C@H](CO)NC(=O)CNC(=O)[C@@H]4C[C@@H](O)CN4C(=O)[C@H](CO)NC(=O)[C@H](CCCCN)NC(=O)[C@@H](N)CSSC[C@H](NC(=O)[C@H](CSSC[C@@H](C(=O)N[C@@H](Cc4ccc(O)cc4)C(N)=O)NC(=O)[C@H](CCCN=C(N)N)NC(=O)[C@H](CCCCN)NC1=O)NC(=O)[C@H](CC(N)=O)NC(=O)[C@H](Cc1ccc(O)cc1)NC(=O)[C@H](CO)NC(=O)[C@H]([C@@H](C)O)NC(=O)[C@@H]1C[C@@H](O)CN1C(=O)[C@H](CO)NC3=O)C(=O)N[C@@H](CCCN=C(N)N)C(=O)N[C@@H](CO)C(=O)N2 [GVIA]
Ataxia index (naïve C57BL6/J mice [1]): 6.9 ± 1.7
Ataxia index (paw slips/distance covered) (naïve C57BL6/J mice [1]): 6.9 ± 1.7 m
Distance covered (naïve C57BL6/J mice [1]): 1.7 ± 0.2 m
Number of paw slips (naïve C57BL6/J mice [1]): 11.3 ± 2.8
IC50 [2]: 11.2 ± 3.3 nM
Effect on basal thermal PWT (naïve C57BL6/J mice [3]): did not significantly change mechanical and thermal PWTs
Effect on basal mechanical PWT (naïve C57BL6/J mice [4]): did not significantly change mechanical and thermal PWTs

CSCC[C@@H]1NC(=O)[C@H](CC(C)C)NC(=O)[C@H](CCCNC(=N)N)NC(=O)[C@H](CO)NC(=O)[C@@H]2CSSC[C@@H]3NC(=O)[C@H](CO)NC(=O)CNC(=O)[C@H]([C@@H](C)O)NC(=O)[C@H](CSSC[C@H](N)C(=O)N[C@@H](CCCCN)C(=O)NCC(=O)N[C@@H](CCCCN)C(=O)NCC(=O)N[C@@H](C)C(=O)N[C@@H](CCCCN)C(=O)N2)NC(=O)[C@H](CSSC[C@@H](C(N)=O)NC(=O)[C@H](CCCCN)NC(=O)CNC(=O)[C@H](CO)NC(=O)[C@H](CCCNC(=N)N)NC3=O)NC(=O)[C@H](CC(=O)O)NC(=O)[C@H](Cc2ccc(O)cc2)NC1=O [MVIIA]
Oral bioavailability and CNS access ([5]; po): Poor oral bioavailability and CNS access
Plasma half-life [5]: short plasma half-life
Ataxia index (naïve C57BL6/J mice [1]): 6.7 ± 1.6
Ataxia index (paw slips/distance covered) (naïve C57BL6/J mice [1]): 6.7 ± 1.6 m
Distance covered (naïve C57BL6/J mice [1]): 1.8 ± 0.3 m
Number of paw slips (naïve C57BL6/J mice [1]): 11.0 ± 1.8
Number of paw slips (printed with unit g) (naïve C57BL6/J mice [1]): 11.0 ± 1.8 g
Effect on basal thermal PWT (naïve C57BL6/J mice [3]): did not significantly change mechanical and thermal PWTs
Effect on basal mechanical PWT (naïve C57BL6/J mice [4]): did not significantly change mechanical and thermal PWTs

CC(C)C[C@@H]1NC(=O)[C@H](CCCNC(=N)N)NC(=O)[C@@H]2CSSC[C@@H]3NC(=O)[C@H](CO)NC(=O)[C@H](C)NC(=O)CNC(=O)[C@H](CCCCN)NC(=O)CNC(=O)[C@H](CCCCN)NC(=O)[C@@H](N)CSSC[C@H](NC(=O)[C@H](CSSC[C@@H](C(N)=O)NC(=O)[C@H](CCCNC(=N)N)NC(=O)CNC1=O)NC(=O)[C@H](CC(=O)O)NC(=O)[C@H](Cc1ccc(O)cc1)NC(=O)[C@H](CO)NC(=O)[C@H]([C@@H](C)O)NC(=O)[C@H](CCCNC(=N)N)NC(=O)[C@H](CCCNC(=N)N)NC3=O)C(=O)N[C@@H]([C@@H](C)O)C(=O)NCC(=O)N[C@@H](CO)C(=O)N2 [CVIF] (H-CKGKGASCRRTSYDCCTGSCRLGRC-NH2; disulfide 1-16, 8-20, 15-25)
Effect on CisIPN mechanical PWT [6]: did not significantly change the PWTs; also recorded: did not produce any significant antiallodynic effect
Mechanical PWT, CisIPN, 2 pmol/paw [6]: 2.0 ± 0.3 g
Effect on inflammatory pain (mouse inflammatory pain): partially reversed the incapacitance of mouse inflammatory pain
Side effects after subcutaneous administration (mouse inflammatory pain): did not cause side effects
Ataxia index (naïve C57BL6/J mice [1]): 7.3 ± 1.8
Ataxia index (paw slips/distance covered) (naïve C57BL6/J mice [1]): 7.3 ± 1.8 m
Distance covered (naïve C57BL6/J mice [1]): 1.7 ± 0.4 m
Number of paw slips (naïve C57BL6/J mice [1]): 10.5 ± 1.5
Number of paw slips (printed with unit g) (naïve C57BL6/J mice [1]): 10.5 ± 1.5 g
Effect on PSP mechanical allodynia, 6.0 pmol/paw [7]: remained unchanged; also recorded: did not produce any significant antiallodynic effect
Mechanical PWT, PSP, 6.0 pmol/paw [7]: 1.4 ± 0.1 g
Effect on PSP thermal allodynia [8]: did not reverse thermal allodynia
Thermal PWT, PSP, 2.0 pmol/paw [8]: 48.9 ± 0.4 °C
Effect on basal thermal PWT (naïve C57BL6/J mice [3]): did not significantly change mechanical and thermal PWTs
Thermal PWT (naïve C57BL6/J mice [3]): 50.8 ± 0.8 °C
State dependence of affinity (CaV channel): higher affinity for channels in the inactivated state
Effect on basal mechanical PWT (naïve C57BL6/J mice [4]): did not significantly change mechanical and thermal PWTs
Mechanical PWT (naïve C57BL6/J mice [4]): 3.1 ± 0.2 g
Activity across the pain models [9]: inactive in these pain models; also recorded: not found effective in any of the peripheral pain models
Effect on OIPN mechanical PWT, 6 pmol/paw [9]: did not significantly change PWTs; also recorded: did not elicit significant antiallodynic effect
Mechanical PWT, OIPN, 2.0 pmol/paw [9]: 1.9 ± 0.2 g
Mechanical PWT, OIPN, 6.0 pmol/paw [9]: 1.7 ± 0.1 g
Effect of contralateral administration on OIPN mechanical PWT [10]: did not significantly change mechanical PWTs; also recorded: did not reverse mechanical allodynia
Mechanical PWT, OIPN, contralateral administration [10]: 1.6 ± 0.4 g
Safety profile [11]: better safety profile in preclinical studies

— publication PMC7917901 (Marine Drugs, 2021)
